According to patent publication US8481539B2, “Alkynylaryl compounds and salts thereof, pharmaceutical compositions comprising same, methods of preparing same and uses of same” (Bayer Intellectual Property GmbH, priority 2007, dated 2013):

Tests used:
[1] = target: T1, human VEGFR2 (Homo sapiens, UniProt P35968); test: VEGFR2 HTRF Assay (assay 5); assay type: biochemical; conditions: pIC50 class; 10 μM ATP; read-out: Enzymatic VEGFR2 activity (assay 5)
T1 construct: GST-tagged recombinant kinase domain of the human VEGFR2; GST; host or cells: SF-9 cells
T1 sequence (P35968 834-1162 limits assumed): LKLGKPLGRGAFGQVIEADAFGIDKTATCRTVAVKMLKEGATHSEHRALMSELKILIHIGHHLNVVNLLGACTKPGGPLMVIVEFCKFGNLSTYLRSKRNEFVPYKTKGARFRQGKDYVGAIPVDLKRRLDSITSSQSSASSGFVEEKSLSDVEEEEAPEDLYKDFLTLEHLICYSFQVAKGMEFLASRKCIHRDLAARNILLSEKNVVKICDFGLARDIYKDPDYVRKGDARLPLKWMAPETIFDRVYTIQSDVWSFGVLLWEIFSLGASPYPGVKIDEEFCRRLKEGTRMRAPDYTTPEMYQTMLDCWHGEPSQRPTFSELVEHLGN
Source text: Assay 5: VEGFR2 HTRF Assay
VEGFR2 inhibitory activity of compounds of the present invention was quantified employing the VEGFR2 HTRF assay as described in the following paragraphs.
GST-tagged recombinant kinase domain of the human VEGFR2 expressed in SF-9 cells was used as kinase. As substrate for the kinase reaction the biotinylated peptide biotin-Ahx-DFGLARDMYDKEYYSVG (C-terminus in acid form) was used which can be purchased e.g. form the company Biosynthan GmbH (Berlin-Buch, Germany). VEGFR2 was incubated for 45 min at 22° C. in the presence of different concentrations of test compounds in 5 μl assay buffer [50 mM Hepes/NaOH pH 7.0, 25 mM MgCl2, 5 mM MnCl2, 1.0 mM dithiothreitol, 0.1 mM sodium ortho-vanadate, 10 μM adenosine-tri-phosphate (ATP), 0.5 μM substrate, 0.001% (v/v) Nonidet-P40 (Sigma), 1% (v/v) dimethylsulfoxide]. The concentration of VEGFR2 was adjusted depending of the activity of the enzyme lot and was chosen appropriate to have the assay in the linear range. The reaction was stopped by the addition of 5 μl of a solution of HTRF detection reagents (0.1 μM streptavidine-XLent and 2 nM PT66-Eu-Chelate, an europium-chelate labelled anti-phospho-tyrosine antibody from Perkin Elmer) in an aqueous EDTA-solution (125 mM EDTA, 0.2% (w/v) bovine serum albumin in 50 mM HEPES/NaOH pH 7.0).
(§1) The resulting mixture was incubated for 1 h at 22° C. to allow the binding of the biotinylated phosphorylated peptide to the streptavidine-XLent and the PT66-Eu-Chelate. Subsequently the amount of phosphorylated substrate was evaluated by measurement of the resonance energy transfer from the PT66-Eu-Chelate to the streptavidine-XLent. Therefore, the fluorescence emissions at 620 nm and 665 nm after excitation at 350 nm was measured in a HTRF reader, e.g. a Rubystar (BMG Labtechnologies, Offenburg, Germany) or a Viewlux (Perkin-Elmer). The ratio of the emissions at 665 nm and at […] was taken as the measure for the amount of phosphorylated substrate. The data were normalized (enzyme reaction without inhibitor=0% inhibition, all other assay components but no enzyme=100% inhibition) and IC50 values were calculated by a 4 parameter fit using an inhouse software.

[2] = target: T2, human Trk-A (Homo sapiens, UniProt P04629); test: TrkA HTRF Assay (assay 7); assay type: biochemical; conditions: pIC50 class; 10 μM ATP; read-out: Enzymatic TrkA activity (assay 7)
T2 construct: C-terminal fragment of human Trk-A (amino acids G443-G796); GST; His; purchased Proqinase [Freiburg i.Brsg., Germany]; host or cells: insect cells [SF9]
T2 sequence (P04629 443-796): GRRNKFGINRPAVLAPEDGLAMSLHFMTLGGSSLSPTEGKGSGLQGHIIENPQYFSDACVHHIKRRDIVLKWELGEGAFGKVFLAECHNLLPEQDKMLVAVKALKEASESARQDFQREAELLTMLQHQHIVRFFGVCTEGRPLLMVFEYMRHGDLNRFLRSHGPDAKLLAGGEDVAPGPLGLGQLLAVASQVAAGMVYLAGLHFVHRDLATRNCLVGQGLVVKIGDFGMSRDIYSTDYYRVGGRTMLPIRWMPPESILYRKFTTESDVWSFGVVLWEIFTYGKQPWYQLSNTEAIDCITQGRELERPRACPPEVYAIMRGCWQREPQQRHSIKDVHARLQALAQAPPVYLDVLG
Source text: Trk-A inhibitory activity of compounds of the present invention was quantified employing the Trk-A HTRF assay as described in the following paragraphs.
As kinase, a GST-His fusion protein containing a C-terminal fragment of human Trk-A (amino acids G443-G796, expressed in insect cells [SF9] and purified by affinity chromatography, purchased from Proqinase [Freiburg i.Brsg., Germany] was used. As substrate for the kinase reaction the biotinylated poly-Glu, Tyr (4:1) copolymer (#61GT0BLA) from Cis Biointernational (Marcoule, France) was used. For the assay 50 nl of a 100 fold concentrated solution of the test compound in DMSO was pipetted into a black low volume 384 well microtiter plate (Greiner Bio-One, Frickenhausen, Germany), 2 μl of a solution of TrkA in aqueous assay buffer [8 mM MOPS/NaOH pH 7.0, 10 mM Mg(OAc)2, 1 mM dithiothreitol, 0.01% (v/v) NP-40 (Fluka), 0.2 mM EDTA] were added and the mixture was incubated for 15 min at 22° C. to allow pre-binding of the test compounds to the enzyme before the start of the kinase reaction. Then the kinase reaction was started by the addition of 3 μl of a solution of adenosine-tri-phosphate (ATP, 16.7 μM=>final conc. in the 5 μl assay volume is 10 μM) and substrate (2.27 μg/ml=>final conc. in the 5 μl assay volume is 1.36 μg/ml [˜30 nM]) in assay buffer and the resulting mixture was incubated for a reaction time of 60 min at 22° C. The concentration of Trk-A in the assay was adjusted depending of the activity of the enzyme lot and was chosen appropriate to have the assay in the linear range, typical enzyme concentrations were in the range of about 60 pg/μl (final conc. in the 5 μl assay volume). The reaction was stopped by the addition of 5 μl of a solution of HTRF detection reagents (200 nM streptavidine-XLent [Cis Biointernational] and 1.4 nM PT66-Eu-Chelate, an europium-chelate labelled anti-phospho-tyrosine antibody from Perkin Elmer) in an aqueous EDTA-solution (100 mM EDTA, 0.2% (w/v) bovine serum albumin in 50 mM HEPES/NaOH pH 7.5).
as §1, with “incubated” for “incubated for”, “normalised” for “normalized”, “inhibition).” for “inhibition) and IC50 values were calculated by a 4 parameter fit using an inhouse software.”

IC50 [1]	IC50 [2]	SMILES
< 1 µM	≥ 10 µM	Cn1ncc2c(C#Cc3cccc(NC(=O)Nc4ccccc4)c3)cncc21 [Example 2.1, 1-[3-(1-Methyl-1H-pyrazolo[3,4-c]pyridin-4-ylethynyl)-phenyl]-3-phenyl-urea]
< 1 µM	≥ 10 µM	Cc1ccc(NC(=O)Nc2cccc(C(F)(F)F)c2)cc1C#Cc1cncc2c1cnn2C [Example 2.4, 1-[4-Methyl-3-(1-methyl-1H-pyrazolo[3,4-c]pyridin-4-ylethynyl)-phenyl]-3-(3-trifluoromethyl-phenyl)-urea]
< 1 µM	≥ 10 µM	Cn1ncc2c(C#Cc3cc(NC(=O)c4cccc(C(F)(F)F)c4)ccc3F)cncc21 [Example 1.9, N-[4-Fluoro-3-(1-methyl-1H-pyrazolo[3,4-c]pyridin-4-ylethynyl)-phenyl]-3-trifluoromethyl-benzamide]
< 1 µM	≥ 10 µM	Cn1ncc2c(C#Cc3cccc(NC(=O)c4cccc(C(F)(F)F)c4)c3)cncc21 [Example 1.5, N-[3-(1-Methyl-1H-pyrazolo[3,4-c]pyridin-4-ylethynyl)-phenyl]-3-trifluoromethyl-benzamide]
< 1 µM	≥ 10 µM	Cc1ccc(NC(=O)c2cccc(C(F)(F)F)c2)cc1C#Cc1cncc2c1cnn2C [Example 1.6, N-[4-Methyl-3-(1-methyl-1H-pyrazolo[3,4-c]pyridin-4-ylethynyl)-phenyl]-3-trifluoromethyl-benzamide]
